Source: patent US5420334A, “Inhibitors of farnesyl-protein transferase” (Merck & Co., Inc., priority 1994, dated 1995)

Tested on: Ras famesylation
Assay: not given
Conditions: cited from earlier work
For `CC[C@H](C)C(=O)O[C@H]1CCC=C2C=C[C@H](C)[C@H](CC[C@@H]3C[C@@H](O)CC(=O)O3)[C@H]21` [compactin], the “Inhibition of Ras famesylation in vivo” value is listed as “Inhibition of Ras famesylation in vivo has been demonstrated”.
In the case of `CC[C@H](C)C(=O)O[C@H]1C[C@@H](C)C=C2C=C[C@H](C)[C@H](CC[C@@H]3C[C@@H](O)CC(=O)O3)[C@H]21` [lovastatin], the “Inhibition of Ras famesylation in vivo” value is given as “Inhibition of Ras famesylation in vivo has been demonstrated”.

Target: T1, bovine brain FPTase (Bos taurus, UniProt P29702+P49355)
T1 construct: Famesyl-protein transferase (FPTase) from bovine brain; from tissue; host or cells: bovine brain, partially purified (DEAE-Sephacel, N-octyl agarose, mono Q)
Assay: In vitro inhibition of Ras farnesyl-protein transferase (FPTase)
Format: biochemical
Conditions: Ras-CVLS, [3H]FPP, concentration giving 50% inhibition, read-out: IC50, inhibition of RAS farnesylation
Method: The intrinsic famesyl-protein transferase (FPTase) activity of representative compounds of this invention was measured by the assay as described below:
Famesyl-protein transferase (FPTase) from bovine brain was chromatographed on DEAE-Sephacel (Pharmacia, 0-0.8M NaCl gradient elution), N-octyl agarose (Sigma, 0-0.6M NaCl gradient elution), and a mono Q HPLC column (Pharmacia, 0-0.3M NaCl gradient). Ras-CVLS (Cys-Val-Leu-Ser) at […], […] [^3 H]FPP, and the indicated compounds were incubated with this partially purified enzyme preparation. FPTase inhibition data is a measurement of the ability of the test compound to inhibit Ras farnesylation in vitro.
Famesyl-protein transferase (FPTase) from bovine brain was chromatographed on DEAE-Sephacel (Pharmacia, 0-0.8M NaCl gradient elution), N-octyl agarose (Sigma, 0-0.6M NaCl gradient elution), and a mono Q HPLC column (Pharmacia, 0-0.3M NaCl gradient). Ras-CVLS at 3.5 µM, 0.25 µM [3H]FPP, and the indicated compounds were incubated with either a partially purified bovine enzyme preparation or a recombinant human enzyme preparation. The FPTase data presented below in Table 1 reflects the ability of the test compound to inhibit RAS famesylation in vitro, as described in Pompliano, et al., Biochemistry 31, 3800 (1992).
*(IC50 is the concentration of the test compound which gives 50%
inhibition of bovine brain FPTase under the described assay conditions)
Work on `CC(/C=C/[C@@]1(C)[C@H](C)C(=O)C=C[C@@H]1C)=C\Cc1c(O)c(Cl)c(C)c(C=O)c1O` [Compound 5] yielded an IC50 of 15 µM.
With `COCOc1cc(C)c(C=O)c(OCOC)c1C/C=C(\C)CC[C@@]1(C)[C@H](C)C(=O)CC[C@@H]1C` [Compound 21] the IC50 was greater than 50 µM.
Work on `C/C(=C\Cc1c(O)cc(C)c(C)c1O)CC[C@@]1(C)[C@H](C)C(=O)CC[C@@H]1C` [Compound 16] yielded an IC50 of 30.7 µM.
`C/C(=C\Cc1c(O)cc(C)c(CO)c1O)CC[C@@]1(C)[C@H](C)[C@H](O)CC[C@@H]1C` [Compound 15] gave an IC50 of 101 µM.
`CCC(=O)O[C@@H](C[C@@]1(C)[C@H](C)C(=O)CC[C@@H]1C)/C(C)=C/Cc1c(O)cc(C)c(C=O)c1O` [Compound 8] showed an IC50 of 2.2 µM.
Work on `C/C(=C\Cc1c(O)c(Cl)c(C)c(C=O)c1O)[C@H](C[C@@]1(C)[C@H](C)C(=O)CC[C@@H]1C)OC(=O)CC(C)C` [Compound 7] yielded an IC50 of 6.5 µM.
Compound `COc1cc(C)c(C=O)c(O)c1C/C=C(\C)CC[C@@]1(C)[C@H](C)C(=O)CC[C@@H]1C` [Compound 13, 3-[5-[1(R),2(S),6(S)-trimethyl-5-oxocyclohexyl]-3-methyl-2-pentenyl]-2-hydroxy-4-methoxy-6-methylbenzaldehyde] has an IC50 of 2 µM.
In the case of `C/C(=C\Cc1c(O)cc(C)c(C)c1O)CC[C@@]1(C)[C@H](C)[C@H](O)CC[C@@H]1C` [Compound 17], the IC50 is reported as greater than 140 µM.
`CC(=O)Oc1cc(C)c(C=O)c(OC(C)=O)c1C/C=C(\C)CC[C@@]1(C)[C@H](C)C(=O)CC[C@@H]1C` [Compound 11] showed an IC50 of 6.5 µM.
`COc1cc(C)c(C=O)c(O)c1C/C=C(C)/C=C/[C@@]1(C)[C@H](C)C(=O)CC[C@@H]1C` [Compound 12] showed an IC50 of 31 µM.
For `C/C(=C\Cc1c(O)cc(C)c(C=O)c1O)[C@H](C[C@@]1(C)[C@H](C)C(=O)CC[C@@H]1C)OC(=O)CC(C)C` [Compound 6, 3-[5-[1(R),2(S),6(S)-trimethyl-5-oxocyclohexyl]-3-methyl-4(S)-[3-methylbutanoyloxy]-2-pentenyl]-2,4-dihydroxy-6-methylbenzaldehyde], the IC50 was 4.6 µM.
`CC(=O)O[C@@H]1CC(=O)[C@@H](C)[C@](C)(/C=C/C(C)=C/Cc2c(O)cc(C)c(C=O)c2O)[C@H]1C` [Compound 3] showed an IC50 of 5.6 µM.
Compound `CC(/C=C/[C@@]1(C)[C@H](C)C(=O)CC[C@@H]1C)=C\Cc1c(O)cc(C)c(C=O)c1O` [Compound 4] has an IC50 of 6.5 µM.
`C/C(=C\Cc1c(O)cc(C)c(CO)c1O)CC[C@@]1(C)[C@H](C)C(=O)CC[C@@H]1C` [Compound 18] gave an IC50 of 75 µM.
`CC(=O)O[C@@H]1CC(=O)[C@@H](C)[C@](C)(/C=C/C(C)=C/Cc2c(O)c(Cl)c(C)c(C=O)c2O)[C@H]1C` [Compound 2] showed an IC50 of 2.8 µM.
In the case of `C/C(=C\Cc1c(O[Si](C)(C)C(C)(C)C)cc(C)c(C=O)c1O)CC[C@@]1(C)[C@H](C)C(=O)CC[C@@H]1C` [Compound 19], the IC50 is reported as greater than 140 µM.
`C/C(=C\Cc1c(O)cc(C)cc1O)CC[C@@]1(C)[C@H](C)C(=O)CC[C@@H]1C` [Compound 24] showed an IC50 of 20 µM.
In the case of `Cc1cc(O)c(CCC(C)CC[C@@]2(C)[C@H](C)C(=O)CC[C@@H]2C)c(O)c1C` (some centres unmarked) [Compound 14], the IC50 is reported as 18.6 µM.
`COC(=O)c1c(C)cc(O)c(C/C=C(\C)CC[C@@]2(C)[C@H](C)C(=O)CC[C@@H]2C)c1O` [Compound 20] showed an IC50 greater than 140 µM.
Work on `C/C(=C\Cc1c(O)cc(C)c(C=O)c1O)CC[C@@]1(C)[C@H](C)C(=O)CC[C@@H]1C` [Compound 1, 3-[5-[1(R),2(S),6(S)-trimethyl-5-oxocyclohexyl]-3-methyl-2-pentenyl]-2,4-di hydroxy-6-methylbenzaldehyde] yielded an IC50 of 0.7 µM.
`CC(=O)O[C@@H](C[C@@]1(C)[C@H](C)C(=O)CC[C@@H]1C)/C(C)=C/Cc1c(O)cc(C)c(C=O)c1O` [Compound 9] gave an IC50 of 13 µM.
